In article PMC10175918 (Communications Biology, 2023):
Read-outs that look alike come from different tables or passages of the source.

Experiments:
Test in all cases: TGFα-shedding assay-based GPCR screening with chimeric Gα subunit proteins
Format in all cases: cell-based
348 GPCRs [1] = target: T1, 348 GPCRs (Homo sapiens, UniProt Q96P65); details: 10µM, Favipiravir 100μM
T1 construct: expressed in transfected cells; host or cells: HEK293A
T1 sequence (Q96P65 1-431): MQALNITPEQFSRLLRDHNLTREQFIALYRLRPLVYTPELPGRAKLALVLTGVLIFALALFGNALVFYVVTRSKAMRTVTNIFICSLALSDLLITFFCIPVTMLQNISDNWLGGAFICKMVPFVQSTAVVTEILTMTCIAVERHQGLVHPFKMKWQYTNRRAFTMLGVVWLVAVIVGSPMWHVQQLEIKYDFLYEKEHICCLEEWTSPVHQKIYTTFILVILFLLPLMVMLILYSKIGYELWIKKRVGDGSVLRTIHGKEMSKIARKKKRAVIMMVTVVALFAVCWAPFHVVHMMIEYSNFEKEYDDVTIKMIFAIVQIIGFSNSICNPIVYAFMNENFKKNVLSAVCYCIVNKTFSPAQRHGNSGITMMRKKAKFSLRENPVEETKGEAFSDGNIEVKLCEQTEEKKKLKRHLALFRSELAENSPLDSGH

348 GPCRs [2] = target: T2, 348 GPCRs (Homo sapiens, UniProt Q6NV75); details: 10µM, Favipiravir 100μM
T2 construct: expressed in transfected cells; host or cells: HEK293A
T2 sequence (Q6NV75 whole entry): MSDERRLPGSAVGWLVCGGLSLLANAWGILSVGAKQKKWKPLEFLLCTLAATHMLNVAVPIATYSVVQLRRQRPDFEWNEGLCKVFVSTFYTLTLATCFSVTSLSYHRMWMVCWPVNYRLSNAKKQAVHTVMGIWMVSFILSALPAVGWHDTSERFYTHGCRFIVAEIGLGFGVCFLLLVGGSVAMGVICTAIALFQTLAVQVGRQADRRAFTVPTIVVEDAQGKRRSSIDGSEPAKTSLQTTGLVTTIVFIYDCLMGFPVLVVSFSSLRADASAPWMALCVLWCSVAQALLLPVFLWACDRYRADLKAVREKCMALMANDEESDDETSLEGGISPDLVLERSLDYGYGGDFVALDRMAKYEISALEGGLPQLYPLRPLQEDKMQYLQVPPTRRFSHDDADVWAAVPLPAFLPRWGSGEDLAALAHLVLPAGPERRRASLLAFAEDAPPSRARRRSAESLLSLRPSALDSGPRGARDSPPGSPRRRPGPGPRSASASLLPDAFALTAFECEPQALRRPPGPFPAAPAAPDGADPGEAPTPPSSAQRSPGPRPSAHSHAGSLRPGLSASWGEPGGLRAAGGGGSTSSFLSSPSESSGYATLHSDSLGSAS

348 GPCRs [3] = target: 348 GPCRs (Homo sapiens, UniProt P47872); details: SCTR (secretin receptor); 10µM, Favipiravir 100μM
Chain of 348 GPCRs (Homo sapiens, UniProt P47872) (P47872 23-440): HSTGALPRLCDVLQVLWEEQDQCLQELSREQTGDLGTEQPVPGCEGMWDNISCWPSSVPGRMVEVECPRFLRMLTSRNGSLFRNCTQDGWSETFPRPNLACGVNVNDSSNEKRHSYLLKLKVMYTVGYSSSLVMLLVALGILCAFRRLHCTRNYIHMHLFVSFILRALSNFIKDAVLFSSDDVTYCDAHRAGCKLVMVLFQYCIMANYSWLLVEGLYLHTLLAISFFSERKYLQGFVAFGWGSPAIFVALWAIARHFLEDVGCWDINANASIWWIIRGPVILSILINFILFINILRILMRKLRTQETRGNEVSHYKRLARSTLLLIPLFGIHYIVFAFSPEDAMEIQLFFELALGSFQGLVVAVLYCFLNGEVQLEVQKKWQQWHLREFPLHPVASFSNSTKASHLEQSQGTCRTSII

348 GPCRs [4] = target: T3, 348 GPCRs (Homo sapiens, UniProt Q7Z602); details: 10µM, Favipiravir 100μM
T3 construct: expressed in transfected cells; host or cells: HEK293A
T3 sequence (Q7Z602 whole entry): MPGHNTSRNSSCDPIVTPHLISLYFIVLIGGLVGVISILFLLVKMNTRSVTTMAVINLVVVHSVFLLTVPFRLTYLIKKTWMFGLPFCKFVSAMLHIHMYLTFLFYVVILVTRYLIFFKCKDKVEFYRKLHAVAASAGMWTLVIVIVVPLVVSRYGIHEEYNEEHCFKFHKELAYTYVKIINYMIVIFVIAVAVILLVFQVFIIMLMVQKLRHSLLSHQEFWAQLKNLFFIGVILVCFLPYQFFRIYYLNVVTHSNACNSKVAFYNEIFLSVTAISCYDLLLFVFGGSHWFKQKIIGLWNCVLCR

348 GPCRs [5] = target: T4, 348 GPCRs (Homo sapiens, UniProt P32302)
T4 construct: expressed in transfected cells; host or cells: HEK293A
T4 sequence (P32302 1-372): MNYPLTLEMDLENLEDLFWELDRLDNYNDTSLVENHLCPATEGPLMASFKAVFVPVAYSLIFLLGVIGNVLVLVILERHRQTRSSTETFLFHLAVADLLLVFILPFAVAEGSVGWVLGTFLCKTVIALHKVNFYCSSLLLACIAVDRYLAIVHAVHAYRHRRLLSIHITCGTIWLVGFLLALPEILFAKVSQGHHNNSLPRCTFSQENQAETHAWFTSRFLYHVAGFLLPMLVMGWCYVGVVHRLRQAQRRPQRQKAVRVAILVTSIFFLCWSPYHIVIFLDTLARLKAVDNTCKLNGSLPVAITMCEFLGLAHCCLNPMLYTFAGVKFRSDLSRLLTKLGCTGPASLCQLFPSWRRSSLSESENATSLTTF

348 GPCRs [6] = target: T5, 348 GPCRs (Homo sapiens, UniProt Q6DWJ6); details: 10µM, Favipiravir 100μM
T5 construct: expressed in transfected cells; host or cells: HEK293A
T5 sequence (Q6DWJ6 1-353): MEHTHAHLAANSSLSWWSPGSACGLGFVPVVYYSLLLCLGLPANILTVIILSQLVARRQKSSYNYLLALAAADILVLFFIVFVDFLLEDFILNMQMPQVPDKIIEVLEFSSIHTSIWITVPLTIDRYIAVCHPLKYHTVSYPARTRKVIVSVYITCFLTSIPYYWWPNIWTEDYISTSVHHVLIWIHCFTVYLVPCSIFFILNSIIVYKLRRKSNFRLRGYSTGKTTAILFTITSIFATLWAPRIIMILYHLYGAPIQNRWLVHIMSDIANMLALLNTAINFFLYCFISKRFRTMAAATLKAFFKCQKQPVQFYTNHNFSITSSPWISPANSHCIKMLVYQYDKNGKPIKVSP

348 GPCRs [7] = target: T6, 348 GPCRs (Homo sapiens, UniProt Q9Y2T6)
T6 construct: expressed in transfected cells; host or cells: HEK293A
T6 sequence (Q9Y2T6 whole entry): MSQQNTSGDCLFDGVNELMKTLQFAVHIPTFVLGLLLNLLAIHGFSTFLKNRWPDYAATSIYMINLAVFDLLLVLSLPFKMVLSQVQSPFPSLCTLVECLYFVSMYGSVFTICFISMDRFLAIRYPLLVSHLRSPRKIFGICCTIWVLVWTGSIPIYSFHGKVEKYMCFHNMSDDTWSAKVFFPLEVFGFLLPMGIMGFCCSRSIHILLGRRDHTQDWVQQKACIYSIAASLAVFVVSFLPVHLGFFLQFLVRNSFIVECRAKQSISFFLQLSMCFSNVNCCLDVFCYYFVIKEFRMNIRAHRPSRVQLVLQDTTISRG

348 GPCRs [8] = target: T7, 348 GPCRs (Homo sapiens, UniProt O43614); details: HCRTR2 (hypocretin (orexin) receptor 2); 10µM, Favipiravir 100μM
T7 construct: expressed in transfected cells; host or cells: HEK293A
T7 sequence (O43614 1-444): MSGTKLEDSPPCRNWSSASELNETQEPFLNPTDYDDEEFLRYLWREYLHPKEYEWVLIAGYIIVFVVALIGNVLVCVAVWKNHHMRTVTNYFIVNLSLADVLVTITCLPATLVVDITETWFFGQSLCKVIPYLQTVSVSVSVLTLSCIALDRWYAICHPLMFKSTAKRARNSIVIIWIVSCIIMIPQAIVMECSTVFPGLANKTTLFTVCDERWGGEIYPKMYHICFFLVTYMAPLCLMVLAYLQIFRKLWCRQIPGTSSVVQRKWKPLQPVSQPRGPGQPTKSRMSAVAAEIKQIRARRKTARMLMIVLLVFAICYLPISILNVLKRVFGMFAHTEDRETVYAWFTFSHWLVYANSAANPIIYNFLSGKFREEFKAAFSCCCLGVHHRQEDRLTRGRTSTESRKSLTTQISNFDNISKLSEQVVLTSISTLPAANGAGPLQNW

348 GPCRs [9] = target: T8, 348 GPCRs (Homo sapiens, UniProt Q03431); details: 10µM, Favipiravir 100μM
T8 sequence (Q03431 27-593): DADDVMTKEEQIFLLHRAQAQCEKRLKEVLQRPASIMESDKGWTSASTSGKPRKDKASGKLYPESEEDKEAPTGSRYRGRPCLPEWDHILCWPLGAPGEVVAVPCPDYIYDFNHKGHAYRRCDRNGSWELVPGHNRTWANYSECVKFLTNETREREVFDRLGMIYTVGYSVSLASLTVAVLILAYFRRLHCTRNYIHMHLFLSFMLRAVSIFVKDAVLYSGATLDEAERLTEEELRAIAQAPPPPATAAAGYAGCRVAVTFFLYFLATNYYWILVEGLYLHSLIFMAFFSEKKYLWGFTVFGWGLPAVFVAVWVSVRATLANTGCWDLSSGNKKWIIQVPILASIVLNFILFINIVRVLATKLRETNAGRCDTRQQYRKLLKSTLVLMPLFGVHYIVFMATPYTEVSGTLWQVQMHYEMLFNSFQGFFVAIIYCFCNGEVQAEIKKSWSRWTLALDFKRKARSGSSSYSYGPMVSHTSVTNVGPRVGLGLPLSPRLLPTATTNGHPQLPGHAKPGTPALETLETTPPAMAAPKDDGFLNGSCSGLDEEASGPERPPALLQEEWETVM

[10] = QRFP (pyroglutamylated RFamide peptide receptor), read-out: % GPCR activation compared to TPA
[11] = GPR153 (G protein-coupled receptor 153), read-out: % GPCR activation compared to TPA
[12] = GPR141 (G Protein-Coupled Receptor 141), read-out: % GPCR activation compared to TPA
[13] = GPCR CXCR5 (C-X-C motif chemokine receptor 5), read-out: % GPCR activation compared to TPA
[14] = GPR139 (G protein-coupled receptor 139), read-out: % GPCR activation compared to TPA
[15] = GPCR GPR55 (G Protein-Coupled Receptor 55), read-out: % GPCR activation compared to TPA
[16] = PTH1R (parathyroid hormone 1 receptor), read-out: % GPCR activation compared to TPA
[17] = read-out: % GPCR activation compared to TPA, QRFP (pyroglutamylated RFamide peptide receptor)
[18] = read-out: % GPCR activation compared to TPA, GPR153 (G protein-coupled receptor 153)
[19] = read-out: % GPCR activation compared to TPA, GPR141 (G Protein-Coupled Receptor 141)
[20] = read-out: % GPCR activation compared to TPA, GPCR CXCR5 (C-X-C motif chemokine receptor 5)
[21] = read-out: % GPCR activation compared to TPA, GPR139 (G protein-coupled receptor 139)
[22] = read-out: % GPCR activation compared to TPA, GPCR GPR55 (G Protein-Coupled Receptor 55)
[23] = read-out: % GPCR activation compared to TPA, PTH1R (parathyroid hormone 1 receptor)

Row | activation at 100 µM (348 GPCRs [1]; [10]) [%] | activation at 10 µM (348 GPCRs [2]; [11]) [%] | % GPCR activation compared to TPA (348 GPCRs [3]) [%] | activation at 100 µM (348 GPCRs [4]; [12]) [%] | activation at 10 µM (348 GPCRs [5]; [13]) [%] | activation at 100 µM (348 GPCRs [6]; [14]) [%] | activation at 10 µM (348 GPCRs [7]; [15]) [%] | % GPCR activation compared to TPA (348 GPCRs [8]) [%] | activation at 100 µM (348 GPCRs [9]; [16]) [%] | activation at 100 µM (348 GPCRs [5]; GPCR CXCR5 (C-X-C motif chemokine receptor 5), 100μM, read-out: % GPCR activation compared to TPA) [%] | activation at 100 µM (348 GPCRs [7]; GPCR GPR55 (G Protein-Coupled Receptor 55), 100μM, read-out: % GPCR activation compared to TPA) [%] | SMILES | activation at 100 µM (348 GPCRs [1]; [17]) [%] | activation at 10 µM (348 GPCRs [2]; [18]) [%] | activation at 100 µM (348 GPCRs [4]; [19]) [%] | activation at 10 µM (348 GPCRs [5]; [20]) [%] | activation at 100 µM (348 GPCRs [6]; [21]) [%] | activation at 10 µM (348 GPCRs [7]; [22]) [%] | activation at 100 µM (348 GPCRs [9]; [23]) [%]
1 | -0.975 | -3.34 | 0.8944 | -0.309 | -2.05 | -6.35 | -0.0977 | 2.174 | -0.479 |  |  | N#C[C@@]1(c2ccc3c(N)ncnn23)O[C@H](CO)[C@@H](O)[C@H]1O [GS441524] |  |  |  |  |  |  | 
2 | -2.8 | -23.6 | -0.08366 | -1.57 | -2 | -23.9 | 0.0448 | 0.4774 | -0.633 |  |  | CC(C)C(=O)OC[C@H]1O[C@@H](n2ccc(NO)nc2=O)[C@H](O)[C@@H]1O [molnupiravir] |  |  |  |  |  |  | 

Further lines, the compound ahead of its results:

Row | SMILES | activation at 100 µM (348 GPCRs [1]; [10]) [%] | activation at 10 µM (348 GPCRs [2]; [11]) [%] | % GPCR activation compared to TPA (348 GPCRs [3]) [%] | activation at 100 µM (348 GPCRs [4]; [12]) [%] | activation at 10 µM (348 GPCRs [5]; [13]) [%] | activation at 100 µM (348 GPCRs [6]; [14]) [%] | activation at 10 µM (348 GPCRs [7]; [15]) [%] | % GPCR activation compared to TPA (348 GPCRs [8]) [%] | activation at 100 µM (348 GPCRs [9]; [16]) [%] | activation at 100 µM (348 GPCRs [5]; GPCR CXCR5 (C-X-C motif chemokine receptor 5), 100μM, read-out: % GPCR activation compared to TPA) [%] | activation at 100 µM (348 GPCRs [7]; GPCR GPR55 (G Protein-Coupled Receptor 55), 100μM, read-out: % GPCR activation compared to TPA) [%] | activation at 100 µM (348 GPCRs [1]; [17]) [%] | activation at 10 µM (348 GPCRs [2]; [18]) [%] | activation at 100 µM (348 GPCRs [4]; [19]) [%] | activation at 10 µM (348 GPCRs [5]; [20]) [%] | activation at 100 µM (348 GPCRs [6]; [21]) [%] | activation at 10 µM (348 GPCRs [7]; [22]) [%] | activation at 100 µM (348 GPCRs [9]; [23]) [%]
3 | NC(=O)c1nc(F)cnc1O [favipiravir, 6-fluoro-3-hydroxy-2-pyrazinecarboxamide] | -2.34 | 0.731 | -0.5125 | -0.646 |  | -7.28 |  | 0.7248 | -0.775 | -2.18 | -0.0195 |  |  |  |  |  |  | 
4 | CCC(CC)COC(=O)[C@H](C)N[P@](=O)(OC[C@H]1O[C@@](C#N)(c2ccc3c(N)ncnn23)[C@H](O)[C@@H]1O)Oc1ccccc1 [remdesivir] |  |  | -0.9507 |  |  |  |  | 0.0002648 |  |  |  | -1.33 | 4.65 | -1.45 | -0.166 | 2.27 | -2.75 | 0.414
5 | CC(C)OC(=O)[C@H](C)N[P@](=O)(OC[C@H]1O[C@@H](n2ccc(=O)[nH]c2=O)[C@](C)(F)[C@@H]1O)Oc1ccccc1 [sofosbuvir] |  |  | 0.153 |  |  |  |  | -1.966 |  |  |  | -1.05 | -14.2 | -0.925 | -0.968 | -27.2 | -0.223 | 1.23
